Values after ≈ are worked out from the molar mass of the structure shown.
What was measured:
[1] = system: Streptococcus agalactiae; test: Antibacterial activity against Streptococcus agalactiae assessed as bacterial growth inhibition incubated for 18 to 24 hrs by NCCLS based assay; type: functional; settings: time 18-24 hrs
[2] = system: Enterococcus faecalis; test: Antibacterial activity against Enterococcus faecalis assessed as bacterial growth inhibition incubated for 18 to 24 hrs by NCCLS based assay; type: functional; settings: time 18-24 hrs
[3] = system: Staphylococcus aureus; test: Antibacterial activity against Staphylococcus aureus ATCC 25923 assessed as bacterial growth inhibition incubated for 18 to 24 hrs by NCCLS based assay; type: functional; settings: time 18-24 hrs
[4] = system: Pasteurella multocida; test: Antibacterial activity against Pasteurella multocida CVCC 1659 assessed as bacterial growth inhibition incubated for 18 to 24 hrs by NCCLS based assay; type: functional; settings: time 18-24 hrs
[5] = system: Staphylococcus epidermidis; test: Antibacterial activity against methicillin-resistant Staphylococcus epidermidis ATCC 51625 assessed as bacterial growth inhibition incubated for 18 to 24 hrs by NCCLS based assay; type: functional; settings: time 18-24 hrs
[6] = system: Escherichia coli; test: Antibacterial activity against Escherichia coli CICC 10389 assessed as bacterial growth inhibition incubated for 18 to 24 hrs by NCCLS based assay; type: functional; settings: time 18-24 hrs
[7] = system: Staphylococcus aureus; test: Antibacterial activity against methicillin-resistant Staphylococcus aureus BNCC 337371 assessed as bacterial growth inhibition incubated for 18 to 24 hrs by NCCLS based assay; type: functional; settings: time 18-24 hrs
[8] = system: Staphylococcus aureus; test: Antibacterial activity against methicillin-resistant Staphylococcus aureus infected in neutropenic Balb/c mouse model assessed as reduction in bacterial load in lungs at 40 mg/kg, iv measured after 5 days; type: functional; settings: time 5 day
[9] = Toxicity in neutropenic Balb/c mouse model infected with methicillin-resistant Staphylococcus aureus assessed as animal survival at 40 mg/kg, iv measured for 7 days; type: organism-based; settings: in vivo, 168 h, time 7 day
[10] = system: Staphylococcus aureus; test: Antibacterial activity against methicillin-resistant Staphylococcus aureus infected in neutropenic Balb/c mouse model assessed as reduction in bacterial load in lungs at 15 mg/kg, iv measured after 5 days; type: functional; settings: time 5 day
[11] = system: Staphylococcus aureus; test: Antibacterial activity against methicillin-resistant Staphylococcus aureus ATCC 29213 assessed as reduction in bacterial count at 6 times MIC incubated for 24 hrs by time kill assay; type: functional
[12] = system: Staphylococcus aureus; test: Bactericidal activity against methicillin-resistant Staphylococcus aureus ATCC 29213 incubated for 24 hrs by time kill assay; type: functional, organism-based
[13] = system: Staphylococcus aureus; test: Bactericidal activity against Staphylococcus aureus incubated for 24 hrs by time kill assay; type: functional, organism-based
[14] = system: Staphylococcus aureus; test: Antibacterial activity against Staphylococcus aureus assessed as reduction in bacterial count at 6 times MIC incubated for 24 hrs by time kill assay; type: functional

Structure (SMILES) | MIC [1] [µg/mL] | MIC [2] [µg/mL] | MIC [3] [µg/mL] | MIC [4] [µg/mL] | MIC [5] [µg/mL] | MIC [6] [µg/mL] | MIC [7] [µg/mL] | Activity [8] [log10CFU/ml] | Activity [9] [%] | Activity [10] [log10CFU/ml] | log(activity) [11] | Activity [12] | Activity [13] | log(activity) [14]
C=C[C@]1(C)C[C@@H](OC(=O)CSc2ncnc(NCCN3CCOCC3)n2)[C@]2(C)[C@H](C)CC[C@]3(CCC(=O)[C@H]32)[C@@H](C)[C@@H]1O | 0.125 (≈ 0.208 µM) | 32 (≈ 53.2 µM) | 0.063 (≈ 0.105 µM) | ≥ 64 | 0.25 (≈ 0.415 µM) | ≥ 64 | 0.125 (≈ 0.208 µM) |  |  |  |  |  |  | 
C=C[C@]1(C)C[C@@H](OC(=O)CSc2ncnc(NCCN3CCCC3)n2)[C@]2(C)[C@H](C)CC[C@]3(CCC(=O)[C@H]32)[C@@H](C)[C@@H]1O | 0.125 (≈ 0.213 µM) | 32 (≈ 54.6 µM) | 0.063 (≈ 0.108 µM) | ≥ 64 | 0.125 (≈ 0.213 µM) | ≥ 64 | 0.125 (≈ 0.213 µM) |  |  |  |  |  |  | 
C=C[C@]1(C)C[C@@H](OC(=O)CSCCN(CC)CC)[C@]2(C)[C@H](C)CC[C@]3(CCC(=O)[C@H]32)[C@@H](C)[C@@H]1O [TIAMULIN] | 0.125 (≈ 0.253 µM) | 16 (≈ 32.4 µM) | 0.25 (≈ 0.506 µM) | ≥ 64 | 0.5 (≈ 1.01 µM) | ≥ 64 | 0.5 (≈ 1.01 µM) | ~2 | 50 | 1.24 |  |  |  | 
C=C[C@]1(C)C[C@@H](OC(=O)CSc2ncnc(OCCCC)n2)[C@]2(C)[C@H](C)CC[C@]3(CCC(=O)[C@H]32)[C@@H](C)[C@@H]1O | 4 (≈ 7.33 µM) | ≥ 64 | 0.125 (≈ 0.229 µM) | ≥ 64 | 0.25 (≈ 0.458 µM) | ≥ 64 | 0.5 (≈ 0.916 µM) |  |  |  |  |  |  | 
C=C[C@]1(C)C[C@@H](OC(=O)CSc2ncnc(NCC)n2)[C@]2(C)[C@H](C)CC[C@]3(CCC(=O)[C@H]32)[C@@H](C)[C@@H]1O | 0.013 (≈ 0.0252 µM) | 16 (≈ 31 µM) | 0.125 (≈ 0.242 µM) | ≥ 64 | 0.125 (≈ 0.242 µM) | ≥ 64 | 0.125 (≈ 0.242 µM) |  |  |  |  |  |  | 
C=C[C@]1(C)C[C@@H](OC(=O)CSc2ncnc(N)n2)[C@]2(C)[C@H](C)CC[C@]3(CCC(=O)[C@H]32)[C@@H](C)[C@@H]1O | 0.125 (≈ 0.256 µM) | 16 (≈ 32.7 µM) | 0.125 (≈ 0.256 µM) | ≥ 64 | 0.25 (≈ 0.512 µM) | ≥ 64 | 0.125 (≈ 0.256 µM) |  |  |  |  |  |  | 
C=C[C@]1(C)C[C@@H](OC(=O)CSc2ncnc(OCCC)n2)[C@]2(C)[C@H](C)CC[C@]3(CCC(=O)[C@H]32)[C@@H](C)[C@@H]1O | 8 (≈ 15 µM) | ≥ 64 | 16 (≈ 30.1 µM) | ≥ 64 | 16 (≈ 30.1 µM) | ≥ 64 | 16 (≈ 30.1 µM) |  |  |  |  |  |  | 
C=C[C@]1(C)C[C@@H](OC(=O)CSc2ncnc(NCCNCC)n2)[C@]2(C)[C@H](C)CC[C@]3(CCC(=O)[C@H]32)[C@@H](C)[C@@H]1O | 0.25 (≈ 0.447 µM) | 32 (≈ 57.2 µM) | 0.063 (≈ 0.113 µM) | ≥ 64 | 0.25 (≈ 0.447 µM) | ≥ 64 | 0.125 (≈ 0.223 µM) |  |  |  |  |  |  | 
C=C[C@]1(C)C[C@@H](OC(=O)CSc2ncnc(OCC)n2)[C@]2(C)[C@H](C)CC[C@]3(CCC(=O)[C@H]32)[C@@H](C)[C@@H]1O | 0.25 (≈ 0.483 µM) | 32 (≈ 61.8 µM) | 0.125 (≈ 0.241 µM) | ≥ 64 | 0.25 (≈ 0.483 µM) | ≥ 64 | 0.125 (≈ 0.241 µM) |  |  |  |  |  |  | 
C=C[C@]1(C)C[C@@H](OC(=O)CSc2ncnc(NCCN)n2)[C@]2(C)[C@H](C)CC[C@]3(CCC(=O)[C@H]32)[C@@H](C)[C@@H]1O | 2 (≈ 3.76 µM) | ≥ 64 | 2 (≈ 3.76 µM) | ≥ 64 | 8 (≈ 15 µM) | ≥ 64 | 8 (≈ 15 µM) |  |  |  |  |  |  | 
C=C[C@]1(C)C[C@@H](OC(=O)CSc2ncnc(N3CCCC3)n2)[C@]2(C)[C@H](C)CC[C@]3(CCC(=O)[C@H]32)[C@@H](C)[C@@H]1O | 0.25 (≈ 0.461 µM) | 32 (≈ 59 µM) | 0.125 (≈ 0.23 µM) | ≥ 64 | 0.25 (≈ 0.461 µM) | ≥ 64 | 0.125 (≈ 0.23 µM) |  |  |  |  |  |  | 
C=C[C@]1(C)C[C@@H](OC(=O)CSc2ncnc(OC3CCCC3)n2)[C@]2(C)[C@H](C)CC[C@]3(CCC(=O)[C@H]32)[C@@H](C)[C@@H]1O | 8 (≈ 14.3 µM) | ≥ 64 | 4 (≈ 7.17 µM) | ≥ 64 | 16 (≈ 28.7 µM) | ≥ 64 | 16 (≈ 28.7 µM) |  |  |  |  |  |  | 
C=C[C@]1(C)C[C@@H](OC(=O)CSc2ncnc(NCCN(C)C)n2)[C@]2(C)[C@H](C)CC[C@]3(CCC(=O)[C@H]32)[C@@H](C)[C@@H]1O | 0.063 (≈ 0.113 µM) | 16 (≈ 28.6 µM) | 0.031 (≈ 0.0554 µM) | ≥ 64 | 0.125 (≈ 0.223 µM) | ≥ 64 | 0.063 (≈ 0.113 µM) |  |  |  | 0.32 | Dose-Dependent Effect | Dose-Dependent Effect | 2.14
C=C[C@]1(C)C[C@@H](OC(=O)CSc2ncnc(N3CCNCC3)n2)[C@]2(C)[C@H](C)CC[C@]3(CCC(=O)[C@H]32)[C@@H](C)[C@@H]1O | 0.25 (≈ 0.448 µM) | ≥ 64 | 1 (≈ 1.79 µM) | ≥ 64 | 2 (≈ 3.59 µM) | ≥ 64 | 2 (≈ 3.59 µM) |  |  |  |  |  |  | 
C=C[C@]1(C)C[C@@H](OC(=O)CSc2ncnc(Cl)n2)[C@]2(C)[C@H](C)CC[C@]3(CCC(=O)[C@H]32)[C@@H](C)[C@@H]1O | 2 (≈ 3.94 µM) | 32 (≈ 63 µM) | 4 (≈ 7.87 µM) | ≥ 64 | 8 (≈ 15.7 µM) | ≥ 64 | 8 (≈ 15.7 µM) |  |  |  |  |  |  | 
C=C[C@]1(C)C[C@@H](OC(=O)CSc2ncnc(N(CC)CC)n2)[C@]2(C)[C@H](C)CC[C@]3(CCC(=O)[C@H]32)[C@@H](C)[C@@H]1O | 0.25 (≈ 0.459 µM) | ≥ 64 | 0.125 (≈ 0.229 µM) | ≥ 64 | 0.125 (≈ 0.229 µM) | ≥ 64 | 0.25 (≈ 0.459 µM) |  |  |  |  |  |  | 
C=C[C@]1(C)C[C@@H](OC(=O)CSc2ncnc(NCCNC)n2)[C@]2(C)[C@H](C)CC[C@]3(CCC(=O)[C@H]32)[C@@H](C)[C@@H]1O | 0.013 (≈ 0.0238 µM) | 32 (≈ 58.6 µM) | 0.063 (≈ 0.115 µM) | ≥ 64 | 0.25 (≈ 0.458 µM) | ≥ 64 | 0.25 (≈ 0.458 µM) |  |  |  |  |  |  | 
C=C[C@]1(C)C[C@@H](OC(=O)CSc2ncnc(N3CCOCC3)n2)[C@]2(C)[C@H](C)CC[C@]3(CCC(=O)[C@H]32)[C@@H](C)[C@@H]1O | 0.125 (≈ 0.224 µM) | 32 (≈ 57.3 µM) | 0.063 (≈ 0.113 µM) | ≥ 64 | 0.125 (≈ 0.224 µM) | ≥ 64 | 0.063 (≈ 0.113 µM) |  |  |  |  | Dose-Dependent Effect | Dose-Dependent Effect | 
C=C[C@]1(C)C[C@@H](OC(=O)CSc2ncnc(NC)n2)[C@]2(C)[C@H](C)CC[C@]3(CCC(=O)[C@H]32)[C@@H](C)[C@@H]1O | 0.125 (≈ 0.249 µM) | 32 (≈ 63.7 µM) | 0.125 (≈ 0.249 µM) | ≥ 64 | 0.5 (≈ 0.995 µM) | ≥ 64 | 0.25 (≈ 0.497 µM) |  |  |  |  |  |  | 
C=C[C@]1(C)C[C@@H](OC(=O)CSc2ncnc(OC)n2)[C@]2(C)[C@H](C)CC[C@]3(CCC(=O)[C@H]32)[C@@H](C)[C@@H]1O | 0.125 (≈ 0.248 µM) | 32 (≈ 63.5 µM) | 0.125 (≈ 0.248 µM) | ≥ 64 | 0.25 (≈ 0.496 µM) | ≥ 64 | 0.25 (≈ 0.496 µM) |  |  |  |  |  |  | 
C=C[C@]1(C)C[C@@H](OC(=O)CSc2ncnc(N3CCCCC3)n2)[C@]2(C)[C@H](C)CC[C@]3(CCC(=O)[C@H]32)[C@@H](C)[C@@H]1O | 0.5 (≈ 0.898 µM) | 32 (≈ 57.5 µM) | 0.063 (≈ 0.113 µM) | ≥ 64 | 0.125 (≈ 0.225 µM) | ≥ 64 | 0.125 (≈ 0.225 µM) |  |  |  |  |  |  | 
C=C[C@]1(C)C[C@@H](OC(=O)CSc2ncnc(N3CCN(C)CC3)n2)[C@]2(C)[C@H](C)CC[C@]3(CCC(=O)[C@H]32)[C@@H](C)[C@@H]1O | 4 (≈ 7 µM) | ≥ 64 | 0.125 (≈ 0.219 µM) | ≥ 64 | 0.125 (≈ 0.219 µM) | ≥ 64 | 0.125 (≈ 0.219 µM) |  |  |  |  |  |  | 

Source: ChEMBL document CHEMBL5634148, “Synthesis and evaluation of novel pleuromutilin derivatives targeting the 50S ribosomal subunit for antibacterial ability” (Eur J Med Chem, 2023)
